Series [1] has as its target T1, norepinephrine transporter (NET) (Rattus norvegicus, UniProt Q63380). As to the kind of experiment: Competitive binding at the NET with [3H]nisoxetine.
Series [2] deals with T2, serotonin transporter (5-HTT) (Rattus norvegicus, UniProt P31652). Description: Competitive binding at the 5-HTT with [3H]paroxetine.
Series [3] addresses T3, dopamine transporter (DAT) (Rattus norvegicus, UniProt P23977). Description: Competitive binding at the DAT with [3H]WIN 35,428.
Series [4] relates to cocaine self-administration. Conditions: rhesus monkeys, multiple second-order schedule; cited from earlier work.
The subject of a further series is drug self-administration. The note with it: three rhesus monkeys; cited from earlier work.
Series [5] deals with T1, norepinephrine transporter (NET). Conditions: read-out: NET, Ki [3H]nisoxetine; comparison data; cited from earlier work.
Series [6] deals with T3, dopamine transporter (DAT). Conditions: read-out: DAT, IC50 [3H]12; comparison data; cited from earlier work.
Series [7] relates to dopamine transporter (DAT). The note with it: cited from earlier work.
Series [8] addresses T2, serotonin transporter (5-HTT). The note with it: read-out: 5-HTT, Ki [3H]paroxetine; comparison data; cited from earlier work.
The subject of another series is reinforcement. The note with it: squirrel monkeys; cited from earlier work.

“Also recorded” adds a separate entry of the source. Like-named read-outs stand apart in the source and are kept apart here.

T2 sequence (P31652 whole entry): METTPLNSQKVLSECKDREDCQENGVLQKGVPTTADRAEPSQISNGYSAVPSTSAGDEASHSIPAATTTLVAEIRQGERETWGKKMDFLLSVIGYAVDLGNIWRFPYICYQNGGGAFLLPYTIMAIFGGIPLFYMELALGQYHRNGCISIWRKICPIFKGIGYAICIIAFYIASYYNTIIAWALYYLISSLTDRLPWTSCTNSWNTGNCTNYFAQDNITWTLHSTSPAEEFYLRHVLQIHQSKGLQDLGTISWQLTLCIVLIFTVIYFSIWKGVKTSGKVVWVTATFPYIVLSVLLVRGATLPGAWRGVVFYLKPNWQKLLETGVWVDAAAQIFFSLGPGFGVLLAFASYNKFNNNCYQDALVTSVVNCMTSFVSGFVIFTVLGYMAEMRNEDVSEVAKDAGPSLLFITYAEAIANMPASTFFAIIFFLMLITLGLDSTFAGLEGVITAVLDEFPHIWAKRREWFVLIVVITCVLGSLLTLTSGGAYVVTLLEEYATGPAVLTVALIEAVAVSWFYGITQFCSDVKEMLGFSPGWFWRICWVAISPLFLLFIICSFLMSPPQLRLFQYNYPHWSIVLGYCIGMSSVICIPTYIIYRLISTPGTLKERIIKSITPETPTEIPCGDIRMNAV
T1 sequence (Q63380 1-617): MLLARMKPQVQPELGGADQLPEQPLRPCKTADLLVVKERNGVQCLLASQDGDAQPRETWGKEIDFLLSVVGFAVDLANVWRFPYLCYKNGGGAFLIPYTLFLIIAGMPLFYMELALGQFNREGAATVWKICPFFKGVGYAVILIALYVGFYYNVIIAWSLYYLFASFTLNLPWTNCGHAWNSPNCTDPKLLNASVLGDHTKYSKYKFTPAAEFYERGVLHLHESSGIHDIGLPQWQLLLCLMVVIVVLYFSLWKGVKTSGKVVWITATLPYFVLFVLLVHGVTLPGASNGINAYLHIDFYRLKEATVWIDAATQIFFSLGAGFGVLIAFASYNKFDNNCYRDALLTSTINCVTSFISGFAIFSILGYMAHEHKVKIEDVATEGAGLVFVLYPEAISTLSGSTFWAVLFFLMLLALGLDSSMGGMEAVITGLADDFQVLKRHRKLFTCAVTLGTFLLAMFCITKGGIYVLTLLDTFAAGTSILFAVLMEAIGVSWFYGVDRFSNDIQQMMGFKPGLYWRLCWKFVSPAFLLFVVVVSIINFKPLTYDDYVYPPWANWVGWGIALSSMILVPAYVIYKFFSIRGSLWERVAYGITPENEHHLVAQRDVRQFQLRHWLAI
T3 sequence (P23977 whole entry): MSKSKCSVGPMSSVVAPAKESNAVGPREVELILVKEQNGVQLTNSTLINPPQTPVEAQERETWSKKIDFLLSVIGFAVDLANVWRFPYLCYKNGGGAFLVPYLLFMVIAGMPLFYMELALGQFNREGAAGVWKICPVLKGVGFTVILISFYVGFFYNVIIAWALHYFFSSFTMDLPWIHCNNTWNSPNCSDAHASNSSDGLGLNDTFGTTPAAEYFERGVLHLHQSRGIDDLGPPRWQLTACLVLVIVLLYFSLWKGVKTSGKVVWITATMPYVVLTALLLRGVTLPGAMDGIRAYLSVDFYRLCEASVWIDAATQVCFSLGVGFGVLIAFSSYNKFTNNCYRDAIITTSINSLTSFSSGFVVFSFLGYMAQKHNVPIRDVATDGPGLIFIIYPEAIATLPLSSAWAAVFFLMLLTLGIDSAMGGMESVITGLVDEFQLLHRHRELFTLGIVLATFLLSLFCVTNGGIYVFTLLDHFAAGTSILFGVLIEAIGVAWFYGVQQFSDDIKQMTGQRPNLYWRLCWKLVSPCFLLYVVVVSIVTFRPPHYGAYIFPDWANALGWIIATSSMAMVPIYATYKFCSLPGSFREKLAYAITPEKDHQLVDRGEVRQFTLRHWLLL

`COC(=O)[C@H]1[C@@H](c2ccc(OC)cc2)C[C@@H]2CC[C@H]1N2C` [7a, 3β-(4-Methoxyphenyl)tropane-2β-carboxylic Acid Methyl Ester]: the values for the Ki in series [1] and in series [2] were 1110 ± 64 nM and 4.3 ± 0.5 nM, respectively.

With `CCOc1ccc([C@H]2C[C@@H]3CC[C@H]([C@H]2C(=O)OC)N3C)cc1` [7b, 3β-(4-Ethoxyphenyl)tropane-2β-carboxylic Acid Methyl Ester], the Ki is 1690 ± 50 nM in series [1] and 1.7 ± 0.4 nM in series [2].

In the case of `COC(=O)[C@H]1[C@@H](c2ccc(OC)c(F)c2)C[C@@H]2CC[C@H]1N2C` [7c, 3β-(3-Fluoro-4-methoxyphenyl)tropane-2β-carboxylic Acid Methyl Ester], the Ki turned out to be 270 ± 50 nM in series [1] and 4.8 ± 0.5 nM in [2].

With `COC(=O)[C@H]1[C@@H](c2ccc(OC)c(Br)c2)C[C@@H]2CC[C@H]1N2C` [7d, 3β-(3-Bromo-4-methoxyphenyl)tropane-2β-carboxylic Acid Methyl Ester], the Ki in series [1] came to 160 ± 20 nM; in series [2] it was 3.1 ± 0.1 nM.

`COC(=O)[C@H]1[C@@H](c2cc(I)c(OC)c(I)c2)C[C@@H]2CC[C@H]1N2C` [7g, 3β-(3,5-Diiodo-4-methoxyphenyl)tropane-2β-carboxylic Acid Methyl Ester]: the Ki in series [1] is more than 5000 nM; in series [2], 7.5 ± 0.8 nM.

Consider `COc1ccc([C@H]2C[C@@H]3CC[C@H]([C@H]2C(=O)OC(C)C)N3C)cc1` [8a, 3β-(4-Methoxyphenyl)tropane-2β-carboxylic Acid Isopropyl Ester], for which the figures for the Ki in series [1] and in series [2] were 2010 ± 200 nM and 135 ± 35 nM, respectively.

`COc1ccc([C@H]2C[C@@H]3CC[C@H]([C@H]2C(=O)OC2CC2)N3C)cc1` [8b, 3β-(4-Methoxyphenyl)tropane-2β-carboxylic Acid Cyclopropyl Ester]: the values for the Ki in series [1] and in series [2] were 1230 ± 140 nM and 29 ± 3 nM, respectively.

Take `COc1ccc([C@H]2C[C@@H]3CC[C@H]([C@H]2C(=O)OC2CCC2)N3C)cc1` [8c, 3β-(4-Methoxyphenyl)tropane-2β-carboxylic Acid Cyclobutyl Ester]: the results for the Ki in series [1] and in [2] were more than 3000 nM and 100 ± 8 nM, respectively.

For the compound `COc1ccc([C@H]2C[C@@H]3CC[C@H]([C@H]2C(=O)OCCc2ccc([N+](=O)[O-])cc2)N3C)cc1` [8d, 3β-(4-Methoxyphenyl)tropane-2β-carboxylic Acid 2-(4-Nitrophenyl)ethyl Ester], the results for the Ki in series [1] and in [2] were 330 ± 20 nM and 2.9 ± 0.2 nM, respectively.

For `COc1ccc([C@H]2C[C@@H]3CC[C@H]([C@H]2C(=O)OCCc2ccc(N)cc2)N3C)cc1` [8e, 3β-(4-Methoxyphenyl)tropane-2β-carboxylic Acid 2-(4-Aminophenyl)ethyl Ester], the Ki in series [1] turned out to be 2200 ± 300 nM; in series [2], 8.3 ± 0.4 nM.

In the case of `COc1ccc([C@H]2C[C@@H]3CC[C@H]([C@H]2C(=O)OCCc2ccc(NC(C)=O)cc2)N3C)cc1` [8f, 3β-(4-Methoxyphenyl)tropane-2β-carboxylic Acid 2-(4-Acetylaminophenyl)ethyl Ester], the Ki worked out at 1460 ± 30 nM in [1] and 5.5 ± 0.5 nM in [2].

In the case of `COc1ccc([C@H]2C[C@@H]3CC[C@H]([C@H]2C(=O)OCCc2ccc(N)c(Br)c2)N3C)cc1` [8g, 3β-(4-Methoxyphenyl)tropane-2β-carboxylic Acid 2-(3-Bromo-4-aminophenyl)ethyl Ester], the Ki was determined as 1850 ± 90 nM in series [1] and 4.1 ± 0.6 nM in [2].

For `COc1ccc([C@H]2C[C@@H]3CC[C@H]([C@H]2C(=O)OCCc2cc(Br)c(N)c(Br)c2)N3C)cc1` [8h, 3β-(4-Methoxyphenyl)tropane-2β-carboxylic Acid 2-(3,5-Dibromo-4-aminophenyl)ethyl Ester], the Ki in series [1] came out at 2710 ± 250 nM; in series [2] it was 2 ± 0.4 nM.

For `COc1ccc([C@H]2C[C@@H]3CC[C@H]([C@H]2C(=O)OCCc2ccc(N)c(I)c2)N3C)cc1` [8i, 3β-(4-Methoxyphenyl)tropane-2β-carboxylic Acid 2-(3-Iodo-4-aminophenyl)ethyl Ester], the Ki in series [1] is 2040 ± 300 nM; in series [2], 3.5 ± 1 nM.

Consider `COc1ccc([C@H]2C[C@@H]3CC[C@H]([C@H]2C(=O)OCCc2cc(I)c(N)c(I)c2)N3C)cc1` [8j, 3β-(4-Methoxyphenyl)tropane-2β-carboxylic Acid 2-(3,5-Diiodo-4-aminophenyl)ethyl Ester], for which the Ki in [1] is 2600 ± 200 nM; in series [2] it was 1 ± 0.1 nM. In series [3], this compound displayed an IC50 of 100 nM.

Regarding `Cc1ccc(-c2cc([C@@H]3C4CCC(C[C@@H]3c3ccc(Cl)cc3)N4C)on2)cc1` (stereo partly drawn) [compound 3, 3β-(4-chlorophenyl)-2β-[3-(4′-methylphenyl)isoxazol-5-yl]tropane], the “Cocaine maintained responding after pretreatment” value in [4] is on record as “dose-dependent reduction”.

For the compound `COC(=O)[C@H]1[C@@H](c2ccc(Cl)c(C)c2)C[C@@H]2CC[C@H]1N2C` [compound 6, 3β-(4-Chloro-3-methylphenyl)tropane-2β-carboxylic acid methyl ester], the “Maintenance of drug self-administration” value with drug self-administration is “failed to maintain robust drug self-administration”. For the same compound, the Ki in series [5] was 21.8 ± 0.6 nM; in series [8] it was 0.95 ± 0.04 nM. Moreover, in [6], the IC50 was 0.82 ± 0.05 nM. Moreover, the results for the DAT occupancy result in series [7] (at the ED50 for reduction of cocaine self-administration) and in series [7] (highest dose tested) were “no detectable; also recorded: below the limits of detection” and “greater than 70%”, respectively. Moreover, in the series on reinforcement, the Reinforcement effects entry is listed as “did not exhibit any reinforcement effects”.

For `COc1ccc([C@H]2C[C@@H]3CC[C@H]([C@H]2c2cc(-c4ccc(C)cc4)no2)N3C)cc1` [compound 9, 3β-(4-Methoxyphenyl)-2β-[3-(4′-methylphenyl)isoxazol-5-yl]tropane], the Ki in series [1] was more than 3000 nM; in [2] it was 860 ± 170 nM.

The record behind these values is article PMC2841478 (Journal of medicinal chemistry, 2008).
